pIC50: −log10 of the molar value. Where “and” joins values, the source holds several entries; their conditions need not be identical. Identical values can stand only once.
System: 521955-158-R6-J3-PDC complex spheroid growth, % test/control
Experiment: Anticancer human tumor 521955-158-R6-J3-PDC patient-derived pancreatic carcinoma cell line growth inhibition [Asc]
Settings: for viability, T/C: stronger effect = lower value
In short: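 Complex spheroids combining tumor cells with HUVEC endothelial cells and human MSCs, at 37 degrees C, 5% CO2; agents tested alone or combined, half-log dilutions from at or near clinical Cmax, or 10 microM if Cmax unknown.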

[1] = curve of first compound, second compound 0.0316 µM
[2] = curve of first compound, second compound 0.1 µM
[3] = curve of first compound, second compound 0.316 µM
[4] = curve of first compound, second compound 1 µM
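Further: spheroids exposed to compounds for 7 days.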
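Wherever viability, T/C is given: 100% = DMSO vehicle control wells.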

Compound: Cn1ncnc1[C@H]1c2n[nH]c(=O)c3cc(F)cc(c23)N[C@@H]1c1ccc(F)cc1
- viability, T/C (compound 0.000316 µM): 100% and 86% and 85.9%
- viability, T/C (compound 0.001 µM): 117% and 105% and 93.7%
- viability, T/C (compound 0.00316 µM): 108% and 97.1% and 83.8%
- viability, T/C (compound 0.01 µM): 106% and 116% and 114%
- viability, T/C (compound 0.0316 µM): 97.9% and 96.4% and 84.3%
- viability, T/C (compound 0.1 µM): 95.5% and 85.7% and 96.4%
- pIC50 (curve of compound): < 7.00

Compound: Cc1c(S(C)(=O)=O)c(-c2cc(F)cc(N3CCN(c4ccc(NS(=O)(=O)c5ccc(NC(CCN6CCC(C(=O)OCCCP(=O)(O)O)CC6)CSc6ccccc6)c(S(=O)(=O)C(F)(F)F)c5)cc4)CC3)c2)c(-c2ccc(Cl)cc2)n1C(C)C (stereo not drawn)
- viability, T/C (compound 0.0316 µM): 77.2% [middle of 7 runs]
- viability, T/C (compound 0.1 µM): 71.5% [middle of 7 runs]
- viability, T/C (compound 0.316 µM): 54% [middle of 7 runs]
- viability, T/C (compound 1 µM): 37.2% [middle of 7 runs]
- viability, T/C (compound 3.16 µM): 23.6% [middle of 7 runs]
- viability, T/C (compound 10 µM): 18.2% [middle of 7 runs]
- IC50 (compound alone, run of 11/07/2022): 412 nM [middle of 7 runs]

Compound: CCN1C(C(=O)NC23CCC(C(=O)O)(CC2)CC3)C(c2cccc(Cl)c2F)C2(C(=O)Nc3cc(Cl)ccc32)C12CCCCC2 (stereo not drawn) + CNC(C)C(=O)NC1CN(S(=O)(=O)c2cccc(S(=O)(=O)N3CCC4CCC(C(=O)NC(c5ccccc5)c5ccccc5)N4C(=O)C(NC(=O)C(C)NC)C3)c2)CCC2CCC(C(=O)NC(c3ccccc3)c3ccccc3)N2C1=O
- pIC50 (curve of first compound, second compound 0.00316 µM): < 5.52
- pIC50 (curve of first compound, second compound 0.01 µM): < 5.52
- pIC50 [1]: < 5.52
- pIC50 [2]: < 5.52
- pIC50 [3]: < 5.52
- pIC50 [4]: < 5.52
- viability, T/C (second compound 0.00316 µM, first compound 0.00949 µM): 110%
- viability, T/C (second compound 0.00316 µM, first compound 0.03 µM): 110%
- viability, T/C (second compound 0.00316 µM, first compound 0.0949 µM): 89.7%
- viability, T/C (second compound 0.00316 µM, first compound 0.3 µM): 111%
- viability, T/C (second compound 0.00316 µM, first compound 0.949 µM): 99.5%
- viability, T/C (second compound 0.00316 µM, first compound 3 µM): 97.5%
- viability, T/C (second compound 0.01 µM, first compound 0.00949 µM): 111%
- viability, T/C (second compound 0.01 µM, first compound 0.03 µM): 90.1%
- viability, T/C (second compound 0.01 µM, first compound 0.0949 µM): 99.4%
- viability, T/C (second compound 0.01 µM, first compound 0.3 µM): 98.8%
- viability, T/C (second compound 0.01 µM, first compound 0.949 µM): 102%
- viability, T/C (second compound 0.01 µM, first compound 3 µM): 103%
- viability, T/C (second compound 0.0316 µM, first compound 0.00949 µM): 106%
- viability, T/C (second compound 0.0316 µM, first compound 0.03 µM): 78.3%
- viability, T/C (second compound 0.0316 µM, first compound 0.0949 µM): 91.3%
- viability, T/C (second compound 0.0316 µM, first compound 0.3 µM): 96.3%
- viability, T/C (second compound 0.0316 µM, first compound 0.949 µM): 85.9%
- viability, T/C (second compound 0.0316 µM, first compound 3 µM): 85.3%
- viability, T/C (second compound 0.1 µM, first compound 0.00949 µM): 86.8%
- viability, T/C (second compound 0.1 µM, first compound 0.03 µM): 92.4%
- viability, T/C (second compound 0.1 µM, first compound 0.0949 µM): 81.9%
- viability, T/C (second compound 0.1 µM, first compound 0.3 µM): 92%
- viability, T/C (second compound 0.1 µM, first compound 0.949 µM): 93.3%
- viability, T/C (second compound 0.1 µM, first compound 3 µM): 96.4%
- viability, T/C (second compound 0.316 µM, first compound 0.00949 µM): 70.1%
- viability, T/C (second compound 0.316 µM, first compound 0.03 µM): 82.4%
- viability, T/C (second compound 0.316 µM, first compound 0.0949 µM): 97.7%
- viability, T/C (second compound 0.316 µM, first compound 0.3 µM): 83.3%
- viability, T/C (second compound 0.316 µM, first compound 0.949 µM): 82.1%
- viability, T/C (second compound 0.316 µM, first compound 3 µM): 88.2%
- viability, T/C (second compound 1 µM, first compound 0.00949 µM): 85.2%
- viability, T/C (second compound 1 µM, first compound 0.03 µM): 102%
- viability, T/C (second compound 1 µM, first compound 0.0949 µM): 90.1%
- viability, T/C (second compound 1 µM, first compound 0.3 µM): 83%
- viability, T/C (second compound 1 µM, first compound 0.949 µM): 84.9%
- viability, T/C (second compound 1 µM, first compound 3 µM): 96.4%

Compound: NC1CCC(NC2CC2c2ccccc2)CC1 (stereo not drawn) + Cc1c(S(C)(=O)=O)c(-c2cc(F)cc(N3CCN(c4ccc(NS(=O)(=O)c5ccc(NC(CCN6CCC(C(=O)OCCCP(=O)(O)O)CC6)CSc6ccccc6)c(S(=O)(=O)C(F)(F)F)c5)cc4)CC3)c2)c(-c2ccc(Cl)cc2)n1C(C)C
- pIC50 [1]: < 7.00
- pIC50 [2]: < 7.00
- pIC50 [3]: > 9.50
- pIC50 [4]: > 9.50
- pIC50 (curve of first compound, second compound 3.16 µM): > 9.50
- pIC50 (curve of first compound, second compound 10 µM): > 9.50
- viability, T/C (second compound 0.0316 µM, first compound 0.000316 µM): 83.7%
- viability, T/C (second compound 0.0316 µM, first compound 0.001 µM): 97.1%
- viability, T/C (second compound 0.0316 µM, first compound 0.00316 µM): 80.8%
- viability, T/C (second compound 0.0316 µM, first compound 0.01 µM): 92.7%
- viability, T/C (second compound 0.0316 µM, first compound 0.0316 µM): 96.6%
- viability, T/C (second compound 0.0316 µM, first compound 0.1 µM): 90.4%
- viability, T/C (second compound 0.1 µM, first compound 0.000316 µM): 97.7%
- viability, T/C (second compound 0.1 µM, first compound 0.001 µM): 94.7%
- viability, T/C (second compound 0.1 µM, first compound 0.00316 µM): 87.4%
- viability, T/C (second compound 0.1 µM, first compound 0.01 µM): 74.8%
- viability, T/C (second compound 0.1 µM, first compound 0.0316 µM): 79.1%
- viability, T/C (second compound 0.1 µM, first compound 0.1 µM): 73.3%
- viability, T/C (second compound 0.316 µM, first compound 0.000316 µM): 47.1%
- viability, T/C (second compound 0.316 µM, first compound 0.001 µM): 51.2%
- viability, T/C (second compound 0.316 µM, first compound 0.00316 µM): 55.4%
- viability, T/C (second compound 0.316 µM, first compound 0.01 µM): 61.9%
- viability, T/C (second compound 0.316 µM, first compound 0.0316 µM): 43.9%
- viability, T/C (second compound 0.316 µM, first compound 0.1 µM): 63.8%
- viability, T/C (second compound 1 µM, first compound 0.000316 µM): 29%
- viability, T/C (second compound 1 µM, first compound 0.001 µM): 36.1%
- viability, T/C (second compound 1 µM, first compound 0.00316 µM): 38.5%
- viability, T/C (second compound 1 µM, first compound 0.01 µM): 29.1%
- viability, T/C (second compound 1 µM, first compound 0.0316 µM): 45.4%
- viability, T/C (second compound 1 µM, first compound 0.1 µM): 36.6%
- viability, T/C (second compound 3.16 µM, first compound 0.000316 µM): 16.8%
- viability, T/C (second compound 3.16 µM, first compound 0.001 µM): 19.4%
- viability, T/C (second compound 3.16 µM, first compound 0.00316 µM): 20%
- viability, T/C (second compound 3.16 µM, first compound 0.01 µM): 20.5%
- viability, T/C (second compound 3.16 µM, first compound 0.0316 µM): 20.6%
- viability, T/C (second compound 3.16 µM, first compound 0.1 µM): 18.4%
- viability, T/C (second compound 10 µM, first compound 0.000316 µM): 16.8%
- viability, T/C (second compound 10 µM, first compound 0.001 µM): 11.2%
- viability, T/C (second compound 10 µM, first compound 0.00316 µM): 16.9%
- viability, T/C (second compound 10 µM, first compound 0.01 µM): 11.9%
- viability, T/C (second compound 10 µM, first compound 0.0316 µM): 11.8%
- viability, T/C (second compound 10 µM, first compound 0.1 µM): 11.5%

From PubChem BioAssay AID1963451 (Molecular Pharmacology Branch, DTP, NCI, 2024)
